Measured values as given in US20210169985A1, “METHODS FOR TREATING GRAM POSITIVE BACTERIAL INFECTION” (INSERM (Institut National de la Santé et de la Recherche …, priority 2018, published 2021).
Entries after “also recorded” stand apart in the source; their conditions may differ. *1 amine or outer side, *2 acyl side, *3 side chain or, on linkers, in order; H or OH if unused. Where a SMILES comes first, the peptide text is derived from it. Bridges are numbered along the chain shown (N, C = ends). Roman numbers before positions name the chains, in order. [ ]: non-standard residue; d: D form. Actinocin(9to1) = Cc1c2oc3c(C)ccc(C(=O)[*:1])c3nc-2c(C(=O)[*:2])c(N)c1=O; NMeV = CN[C@H](C(=O)O)C(C)C; Sar = CNCC(=O)O

Tests used:
[1] = test system: CXCL1 production in keratinocytes; assay: Cytokine quantification in supernatant of murine primary keratinocytes; type: cell-based; conditions: for effect of inhibitor on hepcidin-induced CXCL1 production: murine primary keratinocytes with 3.6 μM hepcidin, inhibitor added 30 minutes before (FIG. 2C); for CXCL1 levels in the cell culture supernatant: 3 hours; for CXCL1 production by keratinocytes: stimulated 1 or 3 hours vs PBS
Protocol: Keratinocytes were isolated from the skin of 2-day-old WT or Hepc^Δkerat mice, based on modifications from a previously described protocol^8. In brief, dermis were easily separated from epidermis after floating newborn mice skin on freshly thawed cold trypsin 0.25% (thermo fisher 15050065) overnight at 4° C. with the dermis side down. Cells were isolated in stop trypsin medium (DMEM, high glucose, no glutamine, no calcium (thermo fisher 21068028) containing 20% heat inactivated and Chelex (Bio rad 1421253) treated—FBS, 1% GlutaMAXSupplement (thermo fisher 35050061), 1% Sodium Pyruvate (thermo fisher 11360070), 100 U/ml Penicillin, 100 μg/ml Streptomycin (thermo fisher), 2.5 μg/ml Amphotericin B (Gibco)).
Keratinocytes were obtained by epidermis mechanical dissociation through shaking at 350 rpm for 1 hour at 37° C. The resulting cell suspension was filtered through 100 μm filter, centrifuged at 250 g for 10 min at 4° C., plated on fibronectin and bovine collagen I coated tissue culture plate and incubated at 37° C. in a humidified 5% CO2 atmosphere. The cells were cultured in 0.07 mM calcium medium (low Ca^2+) containing EGF (10 ng/ml) and cholera toxin (10^−10 mol/L). Once confluence reached, cells were switched in 1.2 mM calcium medium (high Ca^2+) in order to assure their differentiation. After three days in high Ca′ cells were differentiated and suitable for different experiments.
(§1) Keratinocytes, previously starved of FBS for 1 hour, were treated with 1 or 10 μg/ml hepcidin (Peptide International) and incubated for different time points. In some experiments, inhibitors were added 30 minutes before hepcidin treatment during FBS starving: brefaldin A (sigma B7651), cycloheximide (sigma C7698), actinomycinD (sigma A1410). The cells were lysed with Tri reagent (sigma) while supernatant cytokines were measured with the V-PLEX Proinflammatory Panel1 kit (Meso Scale Discovery), according to the manufacturer's instruction.

GAS NZ131 [2] = assay: GAS growth inhibition (bacteriostatic) assay; type: cell-based, Group A Streptococcus; conditions: in vitro, overnight growth, hepcidin and LL-37 at the same concentration (FIG. 3A)
Protocol: (§2) As previously described, 9 GAS NZ131 were grown in Todd Hewitt Broth (THB, Sigma) plus 0.3% yeast extract to early log phase (absorbance at 600 nm, A600=0,2). Bacteria were then diluted in THB to A600=0,001 (≈2×10^5 colony forming units (c.f.u.) m1-1). This bacterial suspension was kept growing overnight at 37° C. in presence of PBS, LL-37, hepcidin (peptide international) or penicillin G (sigma P7794). For antimicrobial killing kinetics, exponential phase GAS (A600=0,4) was exposed to PBS or LL-37 or hepcidin and incubated at 37° C. At different time point serial dilutions of these bacterial suspensions were plated on THA plate for counting surviving c.f.u.

GAS NZ131 [3] = assay: GAS antimicrobial killing kinetics (bactericidal) assay; type: cell-based, Group A Streptococcus; conditions: added to the culture medium at 4 μg/ml (FIG. 3B; legend says 32 μM)
Protocol: as §2

GAS [4] = assay: Therapeutic treatment in GAS induced necrotizing soft tissue infection model; type: in vivo, C57BL6 mice
Protocol: (§3) A well-established model of necrotizing soft tissue infection was adapted for this study (^7,^9). In brief, 100 μl of a mid logarithmic growth phase (approximately 10^7 c.f.u.) of GAS was mixed with an equal volume of sterile Cytodex beads (Sigma-Aldrich) and injected subcutaneously into the flank of 8- to 12-week-old WT and Hepc^Δkerat14 male littermates, previously shaved (veet hair removal cream). Weight loss and lesion size of mice were daily estimated. After 96 hours mice were sacrificed, skin necrotic ulcers, spleen, and blood (via retro orbital bleeding) were recovered and homogenized in 1:2 mg/μl of sterile PBS. Serial dilutions of tissue homogenate were stretched on THA plates, in order to enumerate living c.f.u.
For therapeutic treatment C57BL6 mice were infected as described above. One day after infection, animals were subcutaneously injected with PBS (control) or 1 μg of hepcidin (peptide international). Mice were treated again at 48 and 72 hours with 500 ng of hepc-25. After 96 hours mice were sacrificed, spleens were taken, homogenized for c.f.u. enumeration.

CXCL1 mRNA = CXCL1 mRNA expression by Q-PCR in primary keratinocytes; type: cell-based, murine; conditions: WT primary keratinocytes, 1 and 3 hours, 360 nM or 3.6 μM (FIG. 2B)
Protocol: RNA extraction, reverse transcription and quantitative PCR have been performed as previously described {Zumerle, 2014 #46}. All samples were normalized to the threshold cycle value for cyclophilin-A.
as §1

GAS [5] = assay: CXCL1 rescue experiment in GAS-infected Hepc Δkerat mice; type: in vivo; conditions: subcutaneous 1 μg/mouse daily, four days after GAS injection
Protocol: as §3
For rescue experiment WT and Hepc^Δkerat littermates were subcutaneously infected with 10^7 c.f.u. of GAS with mock or 1 μg/mouse of rCXCL1 (R&D system, 1395-KC-025/CF). Mice were intralesionally injected again at 24, 48 and 72 h with mock or 1 μg of rCXCL1.

Which “effect of inhibitor on hepcidin-induced CXCL1 production” value [1] does the source give for `C[C@@H]1C[C@@H]([C@H](O)CC2CC(=O)NC(=O)C2)C(=O)[C@@H](C)C1` [Cycloheximide, cycloheximide, reference compound] here?
The value was “significantly reduced”.

With `Cc1c2oc3c(C)ccc(C(=O)N[C@@H]4C(=O)N[C@H](C(C)C)C(=O)N5CCC[C@H]5C(=O)N(C)CC(=O)N(C)[C@@H](C(C)C)C(=O)O[C@@H]4C)c3nc-2c(C(=O)N[C@@H]2C(=O)N[C@H](C(C)C)C(=O)N3CCC[C@H]3C(=O)N(C)CC(=O)N(C)[C@@H](C(C)C)C(=O)O[C@@H]2C)c(N)c1=O` [actinomycin D, actinomycinD, reference compound] (I: T[dV]P[Sar][NMeV] / II: T[dV]P[Sar][NMeV]; ester I:1-I:C, II:1-II:C; linker I:N-II:N via Actinocin(9to1)) as the molecule, how does the “effect of inhibitor on hepcidin-induced CXCL1 production” value [1] read?
The value was “not”.

Which “bacteriostatic effect against GAS (inhibition of GAS growth)” value (GAS NZ131 [2]) does the source give for LL-37 [reference compound] here?
Its value is “able to prevent the growth of the bacteria”.

And the “bactericidal activity against GAS (bacterial titers vs control)” value (GAS NZ131 [3])?
Its value is “significant reduction in bacterial titers”.

How did the “treated mice with no systemic bacterial dissemination (bacteria in the spleen)” value (GAS [4]; GAS-infected mice, 96 hours after infection, all control mice disseminated) turn out when “hepcidin: mature 25-amino acid form of hepcidin (hepc-25), obtained from Peptide International” was run?
The value was 7 out of 9.

What about the “weight (marker of morbidity)” value (GAS [4]; GAS-infected mice, sc 1 μg at 24 h then 500 ng at 48 and 72 h, 96 hours, vs mock) of the same molecule?
Its value is “did not loose weight”.

And the “signs of morbidity (rough hair coat, hunched posture)” value (GAS [4]; GAS-infected mice, sc 1 μg at 24 h then 500 ng at 48 and 72 h, vs mock)?
The value was “didn't present any signs of morbidity”.

And the “systemic spread of infection” value (GAS [4]; local injection at the site of infection (FIG. 2F))?
The value was “prevents systemic spread of infection”.

What about the “production of other tested inflammatory cytokines” value ([1]; murine primary keratinocytes, 360 nM and 3.6 μM hepcidin) of the same molecule?
Its value is “not”.

And the “CXCL1 levels in the cell culture supernatant” value ([1]; murine primary keratinocytes, 360 nM)?
Its value is 150 pg/mL.

What about the “CXCL1 levels in the cell culture supernatant” value ([1]; murine primary keratinocytes, 3.6 μM) of the same molecule?
The value was 50 pg/mL.

What about the “CXCL1 production by keratinocytes” value ([1]; murine primary keratinocytes) of the same molecule?
The value was “dose dependent increase”.

And the “bacteriostatic effect against GAS (inhibition of GAS growth)” value (GAS NZ131 [2])?
The value was “no antimicrobial activity; also recorded: no direct bacteriostatic effect”.

What about the “CXCL1 expression at the mRNA level” value (CXCL1 mRNA) of the same molecule?
The value was “did not increase”.

What about the “bactericidal activity against GAS (bacterial titers vs control)” value (GAS NZ131 [3]) of the same molecule?
The value was “no effect”.

For “mini-hepcidin: murine mini-hepcidin consisting in the 9 N-terminal amino acids of hepcidin (DTNFPICIF; Hepcidin; UniProt Q9EQ21 59-67, looked up, fragment) [reference compound]”, which “CXCL1 production by keratinocytes” value ([1]; murine primary keratinocytes) is on record?
The value was “not able to trigger CXCL1 production”.

What about the “CXCL1 production by keratinocytes” value ([1]; murine primary keratinocytes, listed as Mini-hepcidin) of the same molecule?
Its value is “does bot promote CXCL1 production”.

B1: CXCL1: rCXCL1 (R&D system, 1395-KC-025/CF), key neutrophil chemokine (protein, UniProt P12850 25-96, looked up)
Growth-regulated alpha protein: APIANELRCQCLQTMAGIHLKNIQSLKVLPSGPHCTQTEVIATLKNGREACLDPEAPLVQKIVQKMLKGVPK
With B1 as the molecule, how does the “number of bacteria in skin of Hepc Δkerat mice” value (GAS [5]) read?
Its value is “decreased the number of bacteria at the level of WT mice”.
